N[C@@H](Cc1ccccc1)C(=O)O
solubility (mole fraction)
Conditions	288.15 K	293.15 K	298.15 K	303.15 K	308.15 K
in ethanol	8.9e-05	9.96e-05	0.000116	0.000134	0.00016
in methanol	0.00032	0.000416	0.000563	0.00065	0.000743
in water	0.00219	0.00247	0.00277	0.00312	0.00348

From BigSolDB 2.1
